Measurements: PubChem BioAssay (NCI)
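Five concentrations, 48 hours, 96-well plates. GI50 = concentration required for 50% inhibition of growth. TGI denotes the concentration required for complete inhibition of growth.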

Assays:
Assay in all cases: growth of human tumour cells (NCI), 48 h
OVCAR-8 ovarian = system: OVCAR-8 ovarian
MDA-MB-435 = system: MDA-MB-435
U251 CNS = system: U251 CNS
KM12 colon = system: KM12 colon
UACC-257 melanoma = system: UACC-257 melanoma
A549 NSCLC = system: A549 NSCLC
HS 578T breast = system: HS 578T breast
RPMI-8226 leukemia = system: RPMI-8226 leukemia
SNB-75 CNS = system: SNB-75 CNS
OVCAR-5 ovarian = system: OVCAR-5 ovarian
SK-MEL-5 melanoma = system: SK-MEL-5 melanoma
MOLT-4 leukemia = system: MOLT-4 leukemia
UACC-62 melanoma = system: UACC-62 melanoma
NCI-H522 lung = system: NCI-H522 lung
SK-MEL-28 melanoma = system: SK-MEL-28 melanoma
OVCAR-4 ovarian = system: OVCAR-4 ovarian
HOP-62 NSCLC = system: HOP-62 NSCLC
K-562 leukemia = system: K-562 leukemia
NCI-H23 lung = system: NCI-H23 lung
SW-620 colon = system: SW-620 colon
SF-295 CNS = system: SF-295 CNS
ACHN renal = system: ACHN renal
COLO 205 colon = system: COLO 205 colon
CAKI-1 renal = system: CAKI-1 renal
DU-145 prostate = system: DU-145 prostate
NCI/ADR-RES ovarian = system: NCI/ADR-RES ovarian
LOX IMVI melanoma = system: LOX IMVI melanoma
A498 renal = system: A498 renal
SN12C renal = system: SN12C renal
SF-268 CNS = system: SF-268 CNS
HOP-92 NSCLC = system: HOP-92 NSCLC
HT29 colon = system: HT29 colon
MCF7 breast = system: MCF7 breast
OVCAR-3 ovarian = system: OVCAR-3 ovarian
NCI-H226 lung = system: NCI-H226 lung
BT-549 breast = system: BT-549 breast
SNB-19 CNS = system: SNB-19 CNS
MDA-MB-231 breast = system: MDA-MB-231 breast
SK-MEL-2 melanoma = system: SK-MEL-2 melanoma
M14 melanoma = system: M14 melanoma
EKVX NSCLC = system: EKVX NSCLC
786-0 renal = system: 786-0 renal
SF-539 CNS = system: SF-539 CNS
SK-OV-3 ovarian = system: SK-OV-3 ovarian
UO-31 renal = system: UO-31 renal
HL-60(TB) leukemia = system: HL-60(TB) leukemia
TK-10 renal = system: TK-10 renal
T-47D breast = system: T-47D breast
HCT-15 colon = system: HCT-15 colon
SR leukemia = system: SR leukemia
CCRF-CEM leukemia = system: CCRF-CEM leukemia
MALME-3M melanoma = system: MALME-3M melanoma
NCI-H460 lung = system: NCI-H460 lung
HCT-116 colon = system: HCT-116 colon
IGROV1 ovarian = system: IGROV1 ovarian
PC-3 prostate = system: PC-3 prostate

c1cc(N2CCN(c3ccc(C4=NCCN4)cc3)CC2)ccc1C1=NCCN1 was tested, and the GI50 (OVCAR-8 ovarian) was 37.2 µM, the TGI (OVCAR-8 ovarian) was over 100 µM and the GI50 (MDA-MB-435) was 58 µM. The TGI (MDA-MB-435) was over 100 µM, the GI50 (U251 CNS) was 32.7 µM and the TGI (U251 CNS) was over 100 µM. For the same molecule, the GI50 (KM12 colon) was over 49 µM, the TGI (KM12 colon) was over 96.1 µM and the GI50 (UACC-257 melanoma) was 58.7 µM. It also gave a TGI (UACC-257 melanoma) of 97.5 µM, a GI50 (A549 NSCLC) of 66.7 µM and a TGI (A549 NSCLC) of over 100 µM. The GI50 (HS 578T breast) was 25.1 µM, the TGI (HS 578T breast) was over 78.2 µM and the GI50 (RPMI-8226 leukemia) was 12.8 µM. The TGI (RPMI-8226 leukemia) was over 53.5 µM, the GI50 (SNB-75 CNS) was over 100 µM and the TGI (SNB-75 CNS) was over 100 µM. It also gave a GI50 (OVCAR-5 ovarian) of over 100 µM, a TGI (OVCAR-5 ovarian) of over 100 µM and a GI50 (SK-MEL-5 melanoma) of 22.4 µM. The TGI (SK-MEL-5 melanoma) was over 68.8 µM, the GI50 (MOLT-4 leukemia) was over 100 µM and the TGI (MOLT-4 leukemia) was over 100 µM. It also gave a GI50 (UACC-62 melanoma) of 41.9 µM, a TGI (UACC-62 melanoma) of over 100 µM and a GI50 (NCI-H522 lung) of 21.2 µM. It also gave a TGI (NCI-H522 lung) of over 77.3 µM, a GI50 (SK-MEL-28 melanoma) of over 67.5 µM and a TGI (SK-MEL-28 melanoma) of over 100 µM. The GI50 (OVCAR-4 ovarian) was over 100 µM, the TGI (OVCAR-4 ovarian) was over 100 µM and the GI50 (HOP-62 NSCLC) was 16 µM. For the same molecule, the TGI (HOP-62 NSCLC) was 58.7 µM, the GI50 (K-562 leukemia) was 39.4 µM and the TGI (K-562 leukemia) was over 100 µM. For the same molecule, the GI50 (NCI-H23 lung) was over 44.4 µM, the TGI (NCI-H23 lung) was over 100 µM and the GI50 (SW-620 colon) was over 100 µM. It also gave a TGI (SW-620 colon) of over 100 µM, a GI50 (SF-295 CNS) of 24.8 µM and a TGI (SF-295 CNS) of over 80.4 µM. It also gave a GI50 (ACHN renal) of over 100 µM, a TGI (ACHN renal) of over 100 µM and a GI50 (COLO 205 colon) of over 100 µM. The TGI (COLO 205 colon) was over 100 µM, the GI50 (CAKI-1 renal) was over 57.5 µM and the TGI (CAKI-1 renal) was over 100 µM. For the same molecule, the GI50 (DU-145 prostate) was 45.7 µM, the TGI (DU-145 prostate) was over 100 µM and the GI50 (NCI/ADR-RES ovarian) was over 100 µM. It also gave a TGI (NCI/ADR-RES ovarian) of over 100 µM, a GI50 (LOX IMVI melanoma) of over 100 µM and a TGI (LOX IMVI melanoma) of over 100 µM. For the same molecule, the GI50 (A498 renal) was 7.5 µM, the TGI (A498 renal) was over 100 µM and the GI50 (SN12C renal) was 1.85 µM. It also gave a TGI (SN12C renal) of over 26.4 µM, a GI50 (SF-268 CNS) of over 75.3 µM and a TGI (SF-268 CNS) of over 100 µM. The GI50 (HOP-92 NSCLC) was over 100 µM, the TGI (HOP-92 NSCLC) was over 100 µM and the GI50 (HT29 colon) was over 100 µM. It also gave a TGI (HT29 colon) of over 100 µM, a GI50 (MCF7 breast) of 24.6 µM and a TGI (MCF7 breast) of over 100 µM. It also gave a GI50 (OVCAR-3 ovarian) of over 46.9 µM, a TGI (OVCAR-3 ovarian) of over 86 µM and a GI50 (NCI-H226 lung) of over 80.6 µM. For the same molecule, the TGI (NCI-H226 lung) was over 100 µM, the GI50 (BT-549 breast) was 24.9 µM and the TGI (BT-549 breast) was over 84.5 µM. It also gave a GI50 (SNB-19 CNS) of over 100 µM, a TGI (SNB-19 CNS) of over 100 µM and a GI50 (MDA-MB-231 breast) of over 100 µM. For the same molecule, the TGI (MDA-MB-231 breast) was over 100 µM, the GI50 (SK-MEL-2 melanoma) was 52.4 µM and the TGI (SK-MEL-2 melanoma) was over 100 µM. The GI50 (M14 melanoma) was over 61 µM, the TGI (M14 melanoma) was over 100 µM and the GI50 (EKVX NSCLC) was 11.5 µM. For the same molecule, the TGI (EKVX NSCLC) was 65.2 µM, the GI50 (786-0 renal) was over 68.9 µM and the TGI (786-0 renal) was over 100 µM. For the same molecule, the GI50 (SF-539 CNS) was 55.4 µM, the TGI (SF-539 CNS) was over 100 µM and the GI50 (SK-OV-3 ovarian) was over 100 µM. It also gave a TGI (SK-OV-3 ovarian) of over 100 µM, a GI50 (UO-31 renal) of over 72 µM and a TGI (UO-31 renal) of over 100 µM. The GI50 (HL-60(TB) leukemia) was over 100 µM, the TGI (HL-60(TB) leukemia) was over 100 µM and the GI50 (TK-10 renal) was 43 µM. The TGI (TK-10 renal) was 98.9 µM, the GI50 (T-47D breast) was over 100 µM and the TGI (T-47D breast) was over 100 µM. It also gave a GI50 (HCT-15 colon) of 66.3 µM, a TGI (HCT-15 colon) of over 100 µM and a GI50 (SR leukemia) of 30.8 µM. It also gave a TGI (SR leukemia) of over 100 µM, a GI50 (CCRF-CEM leukemia) of over 87.4 µM and a TGI (CCRF-CEM leukemia) of over 100 µM. The GI50 (MALME-3M melanoma) was 48.8 µM, the TGI (MALME-3M melanoma) was over 100 µM and the GI50 (NCI-H460 lung) was 24.9 µM. The TGI (NCI-H460 lung) was over 100 µM, the GI50 (HCT-116 colon) was over 100 µM and the TGI (HCT-116 colon) was over 100 µM. The GI50 (IGROV1 ovarian) was 55.9 µM, the TGI (IGROV1 ovarian) was over 100 µM and the GI50 (PC-3 prostate) was over 73.6 µM. For the same molecule, the TGI (PC-3 prostate) was over 100 µM.
